Assay results from US20170058348A1, “Predictive mRNA Biomarkers for the Prediction of the Treatment with Methotrexate (MTX)” (Charité - Universitätsmedizin Berlin, priority 2014, published 2017).
“And” between values parts separate entries of the source, which are not always exact repeats. Identical values can stand only once.

Assays:
RA patients = conditions: after a year (Furst 1996); cited from earlier work
[1] = system: patients with a clinically confirmed RA; assay: Clinical response to MTX therapy in RA patients (DAS28, EULAR criteria); type: in vivo, human; conditions: Health Assessment Questionnaire; one line per individual RA patient; during MTX treatment
Description: […] patients with a clinically confirmed RA were examined in the series of tests for the identification and definition of biomarkers for therapy prediction with MTX. In this regard, 5 ml of whole blood was taken from the patients in 2 PAXgene tubes (PreAnalytiX, Hombrechtikon, Switzerland) and turned for 24 hours on an overhead roller at 20° C. (20 rpm); afterwards, they were frozen at −20° C. until worked up. The patient samples were acquired in the context of two clinical studies under standard conditions (HitHard study; n=29; own clinical study; n=22) and after authorization by the ethics commission of the charity, as well as the agreement of the patients. The clinical data, prior to MTX therapy and over the course of >1 year, were stored in the context of the study conditions in a clinical database in accordance with ISO 9001 standard guidelines. The calculation of the assessment of the MTX response before and during the therapy periods was carried out in accordance with the guidelines from the European League Against Rheumatism (ELUAR) using the “Disease Activity Score” considering 28 joints (DAS28; (van Gestel et al, 1999)). The MTX therapy response was classified, in accordance with the guidelines, into the following three groups: responders (R), moderate responders (MR) and non-responders (NR). […]

For `CN(Cc1cnc2nc(N)nc(N)c2n1)c1ccc(C(=O)N[C@@H](CCC(=O)O)C(=O)O)cc1` [MTX, methotrexate], the sustained success rates (RA patients) is listed as 40-50% and the HAQ [1] is listed as 0.6 (2×) and 0.8 and 1.3 (3×) and 0.3 (3×) and 0.0 (3×) and 0.1 (4×) and 1.0 (2×) and 0.5 (2×) and 0.75 and 1.1 (3×) and 0.4 and 1.4 and 0.9 and 1.5 and 1.9 and 2.3.
